Test results from PubChem BioAssay AID2060906 (Molecular Pharmacology Branch, DTP, NCI, 2025).

Tested on: 485176-168-R4-J1-PDC complex spheroid growth
Assay: Anticancer human tumor 485176-168-R4-J1-PDC patient-derived pancreatic adenocarcinoma cell line growth inhibition [RAS]
Settings: for IC50: curve of first compound; for viability, T/C: stronger effect = lower value
In short: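 Tumour cells grown as complex spheroids with HUVEC endothelial cells and mesenchymal stem cells, treated with RAS pathway inhibitor combinations. Each agent spans half-log steps from near clinical Cmax, or 10 microM where Cmax is unknown.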
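Note: spheroids exposed to compounds for seven days before readout.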
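Throughout, for viability, T/C: luminescence viability expressed relative to DMSO vehicle wells set as 100%.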

CC1(C)CCC(Nc2ncc(C(F)(F)F)c(-c3c[nH]c4c(P(C)(C)=O)c(C#N)ccc34)n2)CN1 (centres undefined) + C=CC(=O)N1CCN(c2nc(OCC3CCCN3C)nc3c(F)c(-c4nc(N)cc(C)c4C(F)(F)F)c(Cl)cc23)C(C)C1 was tested, and the IC50 (second compound 0.00316 µM) was greater than 0.3 µM, the IC50 (second compound 0.01 µM) was 0.0808 µM and the IC50 (second compound 0.0316 µM) was greater than 0.3 µM. For the same compound, the IC50 (second compound 0.1 µM) was 0.133 µM, the IC50 (second compound 0.316 µM) was 0.0431 µM and the IC50 (second compound 1 µM) was 0.0944 µM. For the same compound, the viability, T/C (second compound 0.00316 µM, first compound 0.000949 µM) was 116%, the viability, T/C (second compound 0.00316 µM, first compound 0.003 µM) was 109% and the viability, T/C (second compound 0.00316 µM, first compound 0.00949 µM) was 85.6%. For the same compound, the viability, T/C (second compound 0.00316 µM, first compound 0.03 µM) was 60%, the viability, T/C (second compound 0.00316 µM, first compound 0.0949 µM) was 46.2% and the viability, T/C (second compound 0.00316 µM, first compound 0.3 µM) was 55.6%. For the same compound, the viability, T/C (second compound 0.01 µM, first compound 0.000949 µM) was 122%, the viability, T/C (second compound 0.01 µM, first compound 0.003 µM) was 98.9% and the viability, T/C (second compound 0.01 µM, first compound 0.00949 µM) was 75.7%. For the same compound, the viability, T/C (second compound 0.01 µM, first compound 0.03 µM) was 53.9%, the viability, T/C (second compound 0.01 µM, first compound 0.0949 µM) was 48.4% and the viability, T/C (second compound 0.01 µM, first compound 0.3 µM) was 48.1%. For the same compound, the viability, T/C (second compound 0.0316 µM, first compound 0.000949 µM) was 100%, the viability, T/C (second compound 0.0316 µM, first compound 0.003 µM) was 105% and the viability, T/C (second compound 0.0316 µM, first compound 0.00949 µM) was 81.5%. The viability, T/C (second compound 0.0316 µM, first compound 0.03 µM) was 59.5%, the viability, T/C (second compound 0.0316 µM, first compound 0.0949 µM) was 51% and the viability, T/C (second compound 0.0316 µM, first compound 0.3 µM) was 49.1%. It also gave a viability, T/C (second compound 0.1 µM, first compound 0.000949 µM) of 102%, a viability, T/C (second compound 0.1 µM, first compound 0.003 µM) of 84.8% and a viability, T/C (second compound 0.1 µM, first compound 0.00949 µM) of 80.4%. The viability, T/C (second compound 0.1 µM, first compound 0.03 µM) was 63.8%, the viability, T/C (second compound 0.1 µM, first compound 0.0949 µM) was 47.2% and the viability, T/C (second compound 0.1 µM, first compound 0.3 µM) was 47.8%. It also gave a viability, T/C (second compound 0.316 µM, first compound 0.000949 µM) of 92.7%, a viability, T/C (second compound 0.316 µM, first compound 0.003 µM) of 104% and a viability, T/C (second compound 0.316 µM, first compound 0.00949 µM) of 81%. For the same compound, the viability, T/C (second compound 0.316 µM, first compound 0.03 µM) was 52%, the viability, T/C (second compound 0.316 µM, first compound 0.0949 µM) was 52.1% and the viability, T/C (second compound 0.316 µM, first compound 0.3 µM) was 44.2%. It also gave a viability, T/C (second compound 1 µM, first compound 0.000949 µM) of 108%, a viability, T/C (second compound 1 µM, first compound 0.003 µM) of 106% and a viability, T/C (second compound 1 µM, first compound 0.00949 µM) of 82.8%. It also gave a viability, T/C (second compound 1 µM, first compound 0.03 µM) of 57%, a viability, T/C (second compound 1 µM, first compound 0.0949 µM) of 52.2% and a viability, T/C (second compound 1 µM, first compound 0.3 µM) of 46.9%.
In the case of C=CC(=O)N1CCN(c2nc(OCC3CCCN3C)nc3c(F)c(-c4nc(N)cc(C)c4C(F)(F)F)c(Cl)cc23)C(C)C1 (centres undefined) + CCn1c(-c2cc(N3CCN(C)CC3)cnc2C(C)OC)c2c3cc(ccc31)-c1csc(n1)CC(NC(=O)C1CC1C)C(=O)N1CCCC(N1)C(=O)OCC(C)(C)C2, the IC50 (second compound 0.000949 µM) is reported as greater than 1 µM, the IC50 (second compound 0.003 µM) is reported as greater than 1 µM and the IC50 (second compound 0.00949 µM) is reported as greater than 1 µM. For the same compound, the IC50 (second compound 0.03 µM) was greater than 1 µM, the IC50 (second compound 0.0949 µM) was greater than 1 µM and the IC50 (second compound 0.3 µM) was greater than 1 µM. It also gave a viability, T/C (second compound 0.000949 µM, first compound 0.00316 µM) of 95.4%, a viability, T/C (second compound 0.000949 µM, first compound 0.01 µM) of 86.6% and a viability, T/C (second compound 0.000949 µM, first compound 0.0316 µM) of 100%. The viability, T/C (second compound 0.000949 µM, first compound 0.1 µM) was 109%, the viability, T/C (second compound 0.000949 µM, first compound 0.316 µM) was 114% and the viability, T/C (second compound 0.000949 µM, first compound 1 µM) was 99%. It also gave a viability, T/C (second compound 0.003 µM, first compound 0.00316 µM) of 85.3%, a viability, T/C (second compound 0.003 µM, first compound 0.01 µM) of 89.7% and a viability, T/C (second compound 0.003 µM, first compound 0.0316 µM) of 87.4%. It also gave a viability, T/C (second compound 0.003 µM, first compound 0.1 µM) of 103%, a viability, T/C (second compound 0.003 µM, first compound 0.316 µM) of 101% and a viability, T/C (second compound 0.003 µM, first compound 1 µM) of 97.2%. The viability, T/C (second compound 0.00949 µM, first compound 0.00316 µM) was 89.3%, the viability, T/C (second compound 0.00949 µM, first compound 0.01 µM) was 88.5% and the viability, T/C (second compound 0.00949 µM, first compound 0.0316 µM) was 96.5%. It also gave a viability, T/C (second compound 0.00949 µM, first compound 0.1 µM) of 108%, a viability, T/C (second compound 0.00949 µM, first compound 0.316 µM) of 91.7% and a viability, T/C (second compound 0.00949 µM, first compound 1 µM) of 114%. For the same compound, the viability, T/C (second compound 0.03 µM, first compound 0.00316 µM) was 95.5%, the viability, T/C (second compound 0.03 µM, first compound 0.01 µM) was 97% and the viability, T/C (second compound 0.03 µM, first compound 0.0316 µM) was 77.2%. It also gave a viability, T/C (second compound 0.03 µM, first compound 0.1 µM) of 79.7%, a viability, T/C (second compound 0.03 µM, first compound 0.316 µM) of 87.6% and a viability, T/C (second compound 0.03 µM, first compound 1 µM) of 87.8%. For the same compound, the viability, T/C (second compound 0.0949 µM, first compound 0.00316 µM) was 84.4%, the viability, T/C (second compound 0.0949 µM, first compound 0.01 µM) was 105% and the viability, T/C (second compound 0.0949 µM, first compound 0.0316 µM) was 80.4%. It also gave a viability, T/C (second compound 0.0949 µM, first compound 0.1 µM) of 80.7%, a viability, T/C (second compound 0.0949 µM, first compound 0.316 µM) of 76.1% and a viability, T/C (second compound 0.0949 µM, first compound 1 µM) of 81.6%. For the same compound, the viability, T/C (second compound 0.3 µM, first compound 0.00316 µM) was 72.9%, the viability, T/C (second compound 0.3 µM, first compound 0.01 µM) was 72.8% and the viability, T/C (second compound 0.3 µM, first compound 0.0316 µM) was 82%. The viability, T/C (second compound 0.3 µM, first compound 0.1 µM) was 76.6%, the viability, T/C (second compound 0.3 µM, first compound 0.316 µM) was 91.8% and the viability, T/C (second compound 0.3 µM, first compound 1 µM) was 69.3%.
